According to patent US7989495B2, “Compositions and methods for inhibiting NF-κB mediated tumorigenicity and adhesion dependent survival of cancer cells” (University of Utah Research Foundation, priority 2002, dated 2011):

What was measured:
Assay type in all cases: cell-based
[1] = test system: DLD-1 colon cancer cell line; test: Cell proliferation assay (crystal violet, 590 nm)
Method: (§1) DLD-1, HCT-116, and HT-29 colon cancer cell lines were obtained from the ATCC collection and were cultured in Dulbecco's Modification of Eagle's Medium supplemented with 10% fetal bovine serum, glutamine, penicillin, and streptomycin. 293 cells stably transfected with COX-2 (293-COX-2) under the control of a ponasterone sensitive promoter were cultured in Dulbecco's Modification of Eagle's Medium supplemented with 10% fetal bovine serum, 400 μg/ml of zeocin, 400 μg/ml of G418, glutamine, penicillin, and streptomycin. For induction of COX-2 protein expression, 293-COX-2 cells were cultured for 48 hours in media supplemented with 1 μg/ml of ponasterone. All cells were cultured at 37° C. in a humidified incubator with a 5% CO2 atmosphere.
(§2) For the cell proliferation assay, cells were dispersed and plated at 40,000 cells/well in 96-well dishes. At various days in culture, the cells were gently washed twice with 100 μl/well of ice-cold blocking buffer (1% radioimmunoassay grade BSA in PBS) and twice with 100 μl/well of ice-cold PBS. The cells were fixed for 10 min in 100% ice-cold methanol (100 μl/well), then allowed to air-dry. The cells were stained with 100μl/well of 0.1% crystal violet in H2O for 10 minutes, then washed gently four times with dd H20 and four times with PBS. The plates were then air-dried completely. The stained cells were then solubilized in 1% sodium deoxycholate, and the plates read at 590 nm in a spectrophotometer. The absorption at 590 nm is proportional to the number of attached cells.

[2] = test system: HCT-116 colon cancer cell line; test: Cell proliferation assay (crystal violet, 590 nm)
Method: as §1, §2

HT-29 cells = test: One-hour cell adhesion assay (crystal violet); details: HT-29 pretreated three days (3 hours elsewhere in the source) with various concentrations
Method: The data points represent the average percent of annexin V-positive, propidium iodide-negative cells (of the total cells counted) from triplicate experiments. The error bars represent the standard error of the means. […] The results shown are a graphic representation of individual flow cytometry results expressed as the percentage of cells that were annexin V-positive of those that excluded propidium iodide. […] An immunoblot of the lysates for cleaved PARP was performed. Each lane represents equal total protein concentrations. […] The cells were allowed to adhere to plastic dishes for 1 hour after which they were washed gently in PBS and stained with crystal violet. The crystal violet stained cells were solubilized in deoxycholate and the absorbance detected in a spectrophotometer at 590 nm. The adherent cells were expressed as a fraction of the controls Each data point represents the average of triplicate experiments and the error bars the standard errors of the means.
Even though BAY 11-7085 induced a loss of cell adhesion, it was important to show whether HT-29 cells were actually susceptible to anoikis.

[3] = test system: NF-κB (p65) binding to NF-κB consensus oligonucleotides; test: NF-κB binding activity assay (Trans-AM) on lysates of treated HT-29 cells
Method: The transiently suspended cells were lysed and allowed to bind to DNA oligonucleotides, containing the NF-κB consensus binding site, that were immobilized to 96-well plates. NF-κB protein bound to the oligonucleotides was detected by an antibody to the p65 subunit that only recognized p65 that is bound to DNA. The positive control was HeLa cells that were stimulated with TNFα A control was performed using excess free NF-κB oligonucleotides (Competitor). […] NF-κB binding activity was determined by the TransAM assay as in FIG. 5A. […] The data shown represent typical results of three separate experiments. […] An immunoblot for COX-2 was performed.
Activation of NF-κB was also determined using the Trans-AM™ assay (Active Motif, Carlsbad, Calif.) per the manufacturer's instructions. (Renard et al., 2001) Briefly, cell monolayers on 60 mm dishes were washed with ice-cold PBS and removed by incubating in trypsin-PBS or scraping. The cells were centrifuged for 10 minutes at 1,000 rpm at 4° C. and resuspended for 10 minutes in 100 μl of 4° C. lysis buffer (20 mM HEPES (pH 7.5), 350 mM NaCl, 20% glycerol, 1% Igepal-CA630, 1 mM MgCl2, 0.5 mM EDTA, 0.1 mM EGTA, 1 μl of 1 M dithiothreitol and 10 μl of protease inhibitor cocktail (proprietary) per ml of lysis buffer). The lysates were centrifuged for 20 minutes at 14,000 g at 4° C. Lysates containing 5 μg of total protein were added to 20 μl of lysis buffer per well in 96-well dishes containing immobilized oligonucleotides corresponding to the NF-κB consensus DNA binding site (5′-GGGACTTTCC-3′) (SEQ ID NO:2). The plate was covered with an adhesive film and incubated for 1 hour at room temperature on a rocker. The wells were then washed three times with 200 μl per well of washing buffer (100 mM phosphate buffer (pH 7.5), 500 mM NaCl, 1% Tween). 100 μl of p65subunit monoclonal antibody (the p65 antibody supplied with the kit only recognizes p65-containing NF-κB heterodimers that are bound to DNA containing the NF-κB consensus binding sequence) was diluted 1:1,000 in 1× antibody binding buffer (4 mM HEPES (pH 7.5), 120 mM KCl, 8% glycerol, 1% bovine serum albumin) and added to each well and incubated for 1 hour at room temperature. The wells were washed with 100 μl of washing buffer three times. 100 μl of horseradish peroxidase-conjugated secondary antibody diluted 1:1,000 in 1× antibody binding buffer was added to each well and incubated for 1 hour at room temperature without agitation. […] 100 μl of stop solution (0.5 M H2SO4) was added to each well after which the absorbance was determined on a plate spectrophotometer at 450 nm. Specificity of binding was determined using 200-fold excess wildtype NF-κB oligonucleotides added at the time the cell lysates were added to the wells. […]

[4] = summary statement, concentration not given

SMILES	inhibition of growth of cancer cell line [1, 4]	inhibition of growth of cancer cell line [2, 4]	inhibition of cell adhesion (HT-29 cells)	inhibition of cell proliferation ([1]; 10 μM, cultured 8 days)	inhibition of cell proliferation ([2]; 10 μM, cultured 8 days)	constitutive NF-κB activation in adherent cells ([3]; adherent HT-29, increasing concentrations, 8 hours)	inhibition of constitutive NF-κB activation in adherent cells ([3]; adherent colon cancer cells, doses up to 50 μM)	inhibition of NF-κB activation caused by readhesion ([3]; transiently suspended HT-29, increasing concentrations, 8 hours)	inhibition of NF-κB activation induced by readhesion ([3]; transiently suspended colon cancer cells, as little as 10 μM)
Cc1ccc(S(=O)(=O)/C=C/C#N)cc1 [BAY 11-7082, (2E)-3-(tolysulfonyl)-2-propenenitrile]	inhibits growth	inhibits growth							
CC(C)(C)c1ccc(S(=O)(=O)/C=C/C#N)cc1 [BAY 11-7085, (2E)-3-[4-(tertiarybutylphenyl)sulfonyl]-2-propenenitrile]			significant and rapid inhibition of cell adhesion at high concentrations	greatly inhibited cell proliferation	greatly inhibited cell proliferation	relatively unaffected	could not be inhibited	dose-related inhibition of this NF-κB activation	almost totally inhibited
